The record followed here is ChEMBL document CHEMBL4837249, “Discovery of Potent Antiallergic Agents Based on an o-Aminopyridinyl Alkynyl Scaffold” (J Med Chem, 2021).

For one assay, the system named is RBL-2H3. In words: Antiallergic activity against anti-DNP-IgE sensitized rat RBL-2H3 cells assessed as […] of degranulation by measuring beta-hexosaminidase release using P-nitrophenyl-N-acetyl-D-glucosamide as substrate measured after 1 hr by microplate reader. Type of assay: functional, cell-based. The following applies: RBL-2H3, 1 h.
Assay [1] concerns the target Tyrosine-protein kinase ABL1 (Homo sapiens, UniProt P00519). In words: Inhibition of human recombinant ABL1 using ATP/Ulight-TK peptide at 5 nM incubated for 15 mins relative to control.
The target of assay [2] is Tyrosine-protein kinase Blk (Homo sapiens, UniProt P51451). In words: Inhibition of human full length recombinant BLK at 5 nM by radiometric scintillation counting analysis relative to control.
Tyrosine-protein kinase Blk, sequence (P51451 2-505 limits assumed): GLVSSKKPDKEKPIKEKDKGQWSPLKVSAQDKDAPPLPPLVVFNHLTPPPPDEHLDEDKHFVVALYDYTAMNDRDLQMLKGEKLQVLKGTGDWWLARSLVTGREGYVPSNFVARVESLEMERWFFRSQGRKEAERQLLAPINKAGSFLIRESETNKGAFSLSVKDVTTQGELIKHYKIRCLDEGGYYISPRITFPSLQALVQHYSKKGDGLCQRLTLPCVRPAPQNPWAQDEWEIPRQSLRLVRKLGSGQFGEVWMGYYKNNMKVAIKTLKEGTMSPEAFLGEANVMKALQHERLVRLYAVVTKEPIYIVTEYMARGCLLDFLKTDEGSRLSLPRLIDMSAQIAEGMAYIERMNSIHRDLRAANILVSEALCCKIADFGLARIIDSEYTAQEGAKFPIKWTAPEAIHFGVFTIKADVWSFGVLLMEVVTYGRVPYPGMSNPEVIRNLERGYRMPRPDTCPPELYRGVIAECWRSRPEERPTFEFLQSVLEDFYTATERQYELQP
Assay [3] has as its target T1, Tyrosine-protein kinase CSK (Homo sapiens, UniProt P41240). In words: Inhibition of human full length recombinant CSK at 5 nM by radiometric scintillation counting analysis relative to control.
Assay [4] has as its target Tyrosine-protein kinase Lyn (Homo sapiens, UniProt P07948). As to the kind of experiment: Inhibition of human full length recombinant LYN at 5 nM by radiometric scintillation counting analysis relative to control.
The target of assay [5] is Protein-tyrosine kinase 6 (Homo sapiens) (UniProt Q13882). In words: Inhibition of human recombinant BRK (174 to 734) at 50 nM by radiometric scintillation counting analysis relative to control.
Protein-tyrosine kinase 6 (Homo sapiens), sequence (Q13882 whole entry, looked up): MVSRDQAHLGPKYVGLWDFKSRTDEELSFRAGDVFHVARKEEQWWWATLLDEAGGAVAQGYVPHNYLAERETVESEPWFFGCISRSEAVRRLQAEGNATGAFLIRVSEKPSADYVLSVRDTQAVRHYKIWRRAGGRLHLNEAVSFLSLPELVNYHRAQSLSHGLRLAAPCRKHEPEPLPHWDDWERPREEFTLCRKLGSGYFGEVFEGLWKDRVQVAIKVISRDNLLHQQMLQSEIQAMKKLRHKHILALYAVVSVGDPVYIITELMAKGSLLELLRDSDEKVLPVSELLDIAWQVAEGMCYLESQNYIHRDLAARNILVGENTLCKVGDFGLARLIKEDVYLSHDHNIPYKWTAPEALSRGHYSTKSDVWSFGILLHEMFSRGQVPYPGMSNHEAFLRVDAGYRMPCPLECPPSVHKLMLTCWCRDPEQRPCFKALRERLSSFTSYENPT
Assay [6] has as its target Mast/stem cell growth factor receptor Kit (Homo sapiens) (UniProt P10721). In words: Inhibition of human recombinant c-Kit at 50 nM by radiometric scintillation counting analysis relative to control.
The target of assay [7] is Macrophage colony-stimulating factor 1 receptor (Homo sapiens, UniProt P07333). As to the kind of experiment: Inhibition of human recombinant CSF1R using ATP/Ulight-TK peptide at 50 nM incubated for 15 mins relative to control.
Macrophage colony-stimulating factor 1 receptor, sequence (P07333 whole entry): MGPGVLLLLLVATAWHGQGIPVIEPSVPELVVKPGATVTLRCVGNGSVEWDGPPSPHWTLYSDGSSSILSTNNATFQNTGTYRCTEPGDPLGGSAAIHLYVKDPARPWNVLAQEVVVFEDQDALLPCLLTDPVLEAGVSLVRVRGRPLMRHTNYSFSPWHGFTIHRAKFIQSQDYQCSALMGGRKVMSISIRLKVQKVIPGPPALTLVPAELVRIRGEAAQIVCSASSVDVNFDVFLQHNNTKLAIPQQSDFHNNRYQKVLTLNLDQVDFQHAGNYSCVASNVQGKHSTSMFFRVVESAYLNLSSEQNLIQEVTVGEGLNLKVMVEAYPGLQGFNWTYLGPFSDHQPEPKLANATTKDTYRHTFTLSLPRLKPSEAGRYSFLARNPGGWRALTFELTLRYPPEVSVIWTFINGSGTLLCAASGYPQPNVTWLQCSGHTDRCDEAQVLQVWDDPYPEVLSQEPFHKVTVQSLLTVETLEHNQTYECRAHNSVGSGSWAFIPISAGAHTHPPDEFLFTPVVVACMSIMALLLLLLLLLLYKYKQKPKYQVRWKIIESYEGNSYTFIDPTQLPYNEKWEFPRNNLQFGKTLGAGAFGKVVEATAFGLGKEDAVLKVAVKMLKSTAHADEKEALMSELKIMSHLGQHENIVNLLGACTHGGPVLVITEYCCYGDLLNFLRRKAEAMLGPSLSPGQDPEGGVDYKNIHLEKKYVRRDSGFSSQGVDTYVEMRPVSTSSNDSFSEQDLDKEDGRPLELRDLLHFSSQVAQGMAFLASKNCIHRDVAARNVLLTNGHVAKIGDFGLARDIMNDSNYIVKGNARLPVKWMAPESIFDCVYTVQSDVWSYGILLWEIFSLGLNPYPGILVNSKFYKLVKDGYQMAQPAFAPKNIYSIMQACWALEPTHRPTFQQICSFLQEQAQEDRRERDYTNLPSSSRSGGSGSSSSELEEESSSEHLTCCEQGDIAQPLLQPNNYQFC
In assay [8] the target is Platelet-derived growth factor receptor alpha (Homo sapiens) (UniProt P16234). As to the kind of experiment: Inhibition of human recombinant PDGFRalpha (550 to end) at 50 nM by radiometric scintillation counting analysis relative to control.
Assay [9] concerns the target Platelet-derived growth factor receptor beta (Homo sapiens) (UniProt P09619). In words: Inhibition of human recombinant PDGFRbeta (557 to end) at 50 nM by radiometric scintillation counting analysis relative to control.
Assay [10] deals with T2, Tyrosine-protein kinase TXK (Homo sapiens) (UniProt P42681).
T2 sequence (whole entry): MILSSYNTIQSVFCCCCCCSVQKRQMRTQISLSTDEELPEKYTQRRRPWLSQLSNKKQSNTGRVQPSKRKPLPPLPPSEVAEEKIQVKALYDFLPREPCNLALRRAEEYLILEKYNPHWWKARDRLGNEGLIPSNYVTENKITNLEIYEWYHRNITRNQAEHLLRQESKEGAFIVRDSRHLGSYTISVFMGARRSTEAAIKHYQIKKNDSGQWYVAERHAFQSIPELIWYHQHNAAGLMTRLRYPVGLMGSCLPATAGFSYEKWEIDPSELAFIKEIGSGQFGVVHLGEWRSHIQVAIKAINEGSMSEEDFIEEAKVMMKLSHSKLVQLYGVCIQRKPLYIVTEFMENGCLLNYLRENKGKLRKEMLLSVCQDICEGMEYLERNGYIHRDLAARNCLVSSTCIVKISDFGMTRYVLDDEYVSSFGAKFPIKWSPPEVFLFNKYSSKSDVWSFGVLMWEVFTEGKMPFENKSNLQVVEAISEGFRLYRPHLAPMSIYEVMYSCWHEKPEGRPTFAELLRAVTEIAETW
In words: Inhibition of human recombinant […] (256 to end) at 50 nM by radiometric scintillation counting analysis relative to control.

Assay [11] deals with T3, Tyrosine-protein kinase ZAP-70 (Homo sapiens) (UniProt P43403).
T3 sequence (whole entry): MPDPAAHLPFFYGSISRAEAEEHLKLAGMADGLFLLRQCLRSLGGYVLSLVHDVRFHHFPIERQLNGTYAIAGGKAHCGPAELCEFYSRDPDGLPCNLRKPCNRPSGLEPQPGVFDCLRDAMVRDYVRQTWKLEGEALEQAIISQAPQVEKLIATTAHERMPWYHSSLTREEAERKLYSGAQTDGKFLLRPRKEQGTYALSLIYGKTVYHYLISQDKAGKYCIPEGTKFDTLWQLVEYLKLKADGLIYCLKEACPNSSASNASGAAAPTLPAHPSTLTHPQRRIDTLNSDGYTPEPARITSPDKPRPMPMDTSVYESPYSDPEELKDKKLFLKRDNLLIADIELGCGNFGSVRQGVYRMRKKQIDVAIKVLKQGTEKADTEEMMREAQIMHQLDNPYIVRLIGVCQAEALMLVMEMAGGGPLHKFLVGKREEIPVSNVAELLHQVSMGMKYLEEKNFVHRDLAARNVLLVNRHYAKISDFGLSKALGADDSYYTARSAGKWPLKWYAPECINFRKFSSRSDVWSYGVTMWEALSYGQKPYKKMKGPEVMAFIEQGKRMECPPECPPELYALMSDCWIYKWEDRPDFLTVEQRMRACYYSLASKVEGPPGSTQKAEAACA
As to the kind of experiment: Inhibition of human full length recombinant ZAP70 at 50 nM by radiometric scintillation counting analysis relative to control.

Assay [12] addresses T1, Tyrosine-protein kinase CSK. As to the kind of experiment: Inhibition of human full length recombinant CSK at 500 nM by radiometric scintillation counting analysis relative to control.
The target in assay [13] is Platelet-derived growth factor receptor alpha (Homo sapiens) (UniProt P16234). In words: Inhibition of human recombinant PDGFRalpha (550 to end) at 500 nM by radiometric scintillation counting analysis relative to control.
Assay [14] addresses Platelet-derived growth factor receptor beta (Homo sapiens) (UniProt P09619). As to the kind of experiment: Inhibition of human recombinant PDGFRbeta (557 to end) at 500 nM by radiometric scintillation counting analysis relative to control.
Assay [15] addresses Tyrosine-protein kinase Srms (Homo sapiens, UniProt Q9H3Y6). As to the kind of experiment: Inhibition of human SRMS at 500 nM by radiometric scintillation counting analysis relative to control.
The target of assay [16] is T3, Tyrosine-protein kinase ZAP-70 (Homo sapiens). As to the kind of experiment: Inhibition of human full length recombinant ZAP70 at 500 nM by radiometric scintillation counting analysis relative to control.

pIC50: −log10 of the molar value.

Tyrosine-protein kinase Lyn, sequence (P07948 2-512 limits assumed): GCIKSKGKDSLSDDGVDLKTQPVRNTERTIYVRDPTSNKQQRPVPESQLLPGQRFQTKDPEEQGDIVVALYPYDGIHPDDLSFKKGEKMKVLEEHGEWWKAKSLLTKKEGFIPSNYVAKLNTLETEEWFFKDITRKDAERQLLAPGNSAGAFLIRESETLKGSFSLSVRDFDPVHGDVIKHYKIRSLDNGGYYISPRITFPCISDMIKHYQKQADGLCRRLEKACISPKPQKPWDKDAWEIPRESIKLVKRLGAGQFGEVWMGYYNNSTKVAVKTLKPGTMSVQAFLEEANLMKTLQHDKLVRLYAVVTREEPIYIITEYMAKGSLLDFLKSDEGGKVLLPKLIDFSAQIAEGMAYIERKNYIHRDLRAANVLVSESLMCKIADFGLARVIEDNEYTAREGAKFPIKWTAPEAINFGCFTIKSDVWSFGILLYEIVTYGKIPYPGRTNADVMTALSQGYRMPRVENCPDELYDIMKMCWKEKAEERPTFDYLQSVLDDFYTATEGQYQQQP
Tyrosine-protein kinase Srms, sequence (Q9H3Y6 whole entry): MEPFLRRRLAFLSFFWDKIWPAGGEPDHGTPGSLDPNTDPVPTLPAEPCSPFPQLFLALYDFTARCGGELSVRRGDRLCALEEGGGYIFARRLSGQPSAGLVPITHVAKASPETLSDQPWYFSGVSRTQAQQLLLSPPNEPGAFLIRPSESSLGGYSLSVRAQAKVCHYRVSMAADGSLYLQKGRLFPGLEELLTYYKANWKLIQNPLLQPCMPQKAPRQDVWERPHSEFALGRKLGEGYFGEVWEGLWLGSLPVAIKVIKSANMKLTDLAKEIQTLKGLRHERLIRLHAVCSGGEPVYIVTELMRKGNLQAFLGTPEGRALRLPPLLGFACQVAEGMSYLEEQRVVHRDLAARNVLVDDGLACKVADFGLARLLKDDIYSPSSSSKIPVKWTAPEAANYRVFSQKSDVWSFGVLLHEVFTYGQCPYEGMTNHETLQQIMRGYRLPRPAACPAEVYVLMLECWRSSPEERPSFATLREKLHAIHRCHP
T1 sequence (P41240 2-450 limits assumed): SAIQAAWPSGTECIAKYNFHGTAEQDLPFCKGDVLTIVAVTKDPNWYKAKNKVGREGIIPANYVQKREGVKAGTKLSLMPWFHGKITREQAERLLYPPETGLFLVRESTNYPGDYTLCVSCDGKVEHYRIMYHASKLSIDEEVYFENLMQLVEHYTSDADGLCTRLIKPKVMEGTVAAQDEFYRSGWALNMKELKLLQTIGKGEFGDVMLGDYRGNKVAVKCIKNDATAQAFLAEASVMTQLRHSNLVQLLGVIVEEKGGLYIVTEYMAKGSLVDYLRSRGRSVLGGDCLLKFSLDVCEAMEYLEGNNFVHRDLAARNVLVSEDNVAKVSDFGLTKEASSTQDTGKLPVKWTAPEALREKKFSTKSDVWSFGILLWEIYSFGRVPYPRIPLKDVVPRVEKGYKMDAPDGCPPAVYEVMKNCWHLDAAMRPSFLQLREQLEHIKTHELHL
Tyrosine-protein kinase ABL1, sequence (P00519 whole entry): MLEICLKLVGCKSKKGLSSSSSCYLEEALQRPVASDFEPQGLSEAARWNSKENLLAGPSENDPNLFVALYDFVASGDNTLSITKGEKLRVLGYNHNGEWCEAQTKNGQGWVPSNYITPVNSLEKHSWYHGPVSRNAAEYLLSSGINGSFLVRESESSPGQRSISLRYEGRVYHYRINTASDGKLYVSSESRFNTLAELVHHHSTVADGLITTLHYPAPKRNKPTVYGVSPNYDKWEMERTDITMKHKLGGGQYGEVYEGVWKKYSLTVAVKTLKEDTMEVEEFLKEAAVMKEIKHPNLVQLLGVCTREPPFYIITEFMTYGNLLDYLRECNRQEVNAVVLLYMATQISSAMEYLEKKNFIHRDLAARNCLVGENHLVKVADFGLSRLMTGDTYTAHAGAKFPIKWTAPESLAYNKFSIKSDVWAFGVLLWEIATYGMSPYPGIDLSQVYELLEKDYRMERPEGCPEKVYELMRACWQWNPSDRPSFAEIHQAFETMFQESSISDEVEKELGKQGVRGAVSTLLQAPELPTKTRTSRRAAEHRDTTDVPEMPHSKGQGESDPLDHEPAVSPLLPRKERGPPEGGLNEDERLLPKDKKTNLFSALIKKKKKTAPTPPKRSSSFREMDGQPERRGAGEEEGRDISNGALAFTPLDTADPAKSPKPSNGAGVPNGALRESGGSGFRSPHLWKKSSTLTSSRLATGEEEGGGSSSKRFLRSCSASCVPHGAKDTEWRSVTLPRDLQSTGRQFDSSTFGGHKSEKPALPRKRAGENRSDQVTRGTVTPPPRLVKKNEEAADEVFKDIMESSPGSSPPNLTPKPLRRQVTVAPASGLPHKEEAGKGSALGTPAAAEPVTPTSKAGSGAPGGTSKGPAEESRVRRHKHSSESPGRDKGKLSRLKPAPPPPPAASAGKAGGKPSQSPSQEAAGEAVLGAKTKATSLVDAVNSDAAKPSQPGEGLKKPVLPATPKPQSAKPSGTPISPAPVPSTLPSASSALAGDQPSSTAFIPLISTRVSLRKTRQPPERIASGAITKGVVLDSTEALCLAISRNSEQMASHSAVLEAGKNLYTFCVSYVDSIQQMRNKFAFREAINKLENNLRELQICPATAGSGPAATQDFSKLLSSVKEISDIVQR

On to `Cc1ccc(C(=O)Nc2ccc(OC(F)(F)F)cc2)cc1C#Cc1cc(-c2cnn(C)c2)cnc1N`, for which, in the assay with RBL-2H3, the pIC50 (as a rule, −log10 of the IC50, conventionally taken in molar units) is 8.43. Besides, the inhibition (commonly the relative decrease from the control value, in per cent) is 58% in [1]; 21% in assay [2]; 2% in assay [3]; 96% in [4]; 52% in [5]; 15% in assay [6]. Further, the inhibition is 69% in assay [7]; 32% in [8]; 13% in assay [9]; 18% in [10]; 6% in assay [11]; 23% in [12]. Besides, the inhibition was 82% in assay [13], 71% in assay [14], 54% in assay [15] and -4% in assay [16].
For `Cc1ccc(C(=O)Nc2ccc(Cl)cc2Cl)cc1C#Cc1cc(-c2cnn(C)c2)cnc1N`, the pIC50 with RBL-2H3 was less than 6.00. Further, the inhibition in assay [1] is 32%; in assay [2], 7%; in assay [3], 22%; in assay [4] it was 19%; in assay [5], 39%; in assay [6], 21%. The inhibition in assay [7] amounted to 94%; in [8], 21%; in assay [9] it was 54%; in assay [10], 5%; in [11] it was 2%; in assay [12], 39%. The inhibition in assay [13] is 94%; in assay [14], 83%; in assay [15], 13%; in assay [16] it was 20%.
Regarding `Cc1ccc(C(=O)Nc2cc(C(F)(F)F)cc(C(F)(F)F)c2)cc1C#Cc1cc(-c2cnn(C)c2)cnc1N`, in the assay with RBL-2H3, the negative logarithm of the IC50 (pIC50) was 8.03. In addition, the inhibition in assay [1] is 22%; in [2], 22%; in assay [3], 22%; in assay [4], 41%; in [5] it was 1%; in assay [6], -10%. Further, the inhibition in assay [7] is 83%; in [8], 1%; in [9], 6%; in [10] it was 60%; in [11] it was 12%; in assay [12] it was 71%. The inhibition in [13] is 18%; in assay [14], 12%; in assay [15], 86%; in assay [16], -1%.
